Measured values from patent US12194039B2, “Methods of treating heart failure by administering omecamtiv mecarbil” (Cytokinetics, Inc., priority 2020, dated 2025).
Read-outs that look alike come from different tables or passages of the source.

Tested on: patients with HFrEF by ejection fraction quartile
Type: in vivo, human
Design: Change from baseline in KCCQ Total Symptom Score, least square mean / KCCQ Total Symptom Score Inpatient, Treatment Difference, least squares mean / KCCQ Total Symptom Score Outpatient, Treatment Difference, least squares mean / KCCQ Total Symptom Score, Treatment Difference, least squares mean: scale not given here
Settings: for Troponin I (Ratio) / Troponin I, Treatment Difference (95% CI) / Creatinine, Treatment Difference / Heart rate, Treatment Difference / KCCQ Total Symptom Score, Treatment Difference, least squares mean / NT-proBNP (Ratio) / Potassium, Treatment Difference / Systolic BP, Treatment Difference / KCCQ Total Symptom Score Inpatient, Treatment Difference, least squares mean / KCCQ Total Symptom Score Outpatient, Treatment Difference, least squares mean: baseline to Week 24; for Change from baseline in KCCQ Total Symptom Score, least square mean: Week 24
Experimental: Continuous variables were summarized via means and standard deviations or medians and interquartile ranges, as appropriate. Categorical variables are summarized with counts and percentages. Tests of trend across categories were conducted via linear regression, Cuzick's non-parametric trend test, and Chi-squared tests of trend, respectively. Treatment effects on continuous outcomes were assessed via linear regression models adjusted for the corresponding baseline value of the parameter of interest. Survival analyses were conducted using Poisson regression models to estimate incidence rates, rate differences, and rate ratios and Cox proportional hazards models to estimate hazard ratios. […] To allow for potentially non-linear associations between ejection fraction and time-to-event outcomes, restricted cubic splines were utilized in the Poisson regression models with 3 knots. All analyses were conducted using STATA 16 (College Station, Tex.). P-values <0.05 were considered statistically significant. Due to the exploratory nature of these analyses, no adjustments were made for multiple comparisons.
Within each randomization setting subgroup least squares mean is from the mixed model which includes baseline total symptom score value, region, baseline eGFR, scheduled visit, treatment group and interaction of treatment with scheduled visit as covariates. Influence of Ejection Fraction on the Treatment Effect of Omecamtiv Mecarbil

COC(=O)N1CCN(Cc2cccc(NC(=O)Nc3ccc(C)nc3)c2F)CC1 [omecamtiv mecarbil]
Troponin I (Ratio) (EF 29-32%, vs placebo): 1.27
Troponin I, Treatment Difference (95% CI) (EF 29-32%, vs placebo): 4 (3, 5) ng/L
Adjudicated First Major Cardiac Ischemic Events, % (EF 33%, OM group): 6.5%
Adjudicated First Stroke, % (EF 33%, OM group): 1.8%
Adverse Event: Ventricular Tachyarrhythmia, % (EF 33%, OM group): 6.4%
Any treatment Emergent Serious Adverse Events, % (EF 33%, OM group): (55.5%)
Positively Adjudicated Myocardial Infarction, % (EF 33%, OM group): 3.8%
Serious Adverse Event: Ventricular Arrhythmia Requiring Treatment, % (EF 33%, OM group): 2.5%
Adjudicated First Major Cardiac Ischemic Events, Relative Risk (EF 33%, OM vs placebo): 0.99
Adjudicated First Stroke, Relative Risk (EF 33%, OM vs placebo): 0.77
Adverse Event: Ventricular Tachyarrhythmia, Relative Risk (EF 33%, OM vs placebo): 0.88
Any treatment Emergent Serious Adverse Events, Relative Risk (EF 33%, OM vs placebo): 1.02
Positively Adjudicated Myocardial Infarction, Relative Risk (EF 33%, OM vs placebo): 1.02
Serious Adverse Event: Ventricular Arrhythmia Requiring Treatment, Relative Risk (EF 33%, OM vs placebo): 1.11
1st HF Hospitalization (%) (EF ≤22%, OM group): (30%)
1st HF Hospitalization Rate (EF ≤22%, OM group): 20.9 per 100 patient years
1st HF Hospitalization n/N (EF ≤22%, OM group): 340/1127
First HF Event (%) (EF ≤22%, OM group): (31%)
First HF Event Rate (EF ≤22%, OM group): 21.7 per 100 patient years
First HF Event n/N (EF ≤22%, OM group): 351/1127
Primary Outcome (%) (EF ≤22%, OM group): (41%)
Primary Outcome Rate (EF ≤22%, OM group): 28.3 per 100 patient years
Primary Outcome n/N (EF ≤22%, OM group): 457/1127
Total HF Events, Events (EF ≤22%, OM group): 719
Total HF Events, Rate (EF ≤22%, OM group): 37.1 per 100 pt-yrs
Total HF Hospitalizations, Events (EF ≤22%, OM group): 679
Total HF Hospitalizations, Rate (EF ≤22%, OM group): 35.1 per 100 pt-yrs
1st HF Hospitalization ARR (EF ≤22%, OM vs placebo): 6.1 per 100 patient years
1st HF Hospitalization HR (95% CI) (EF ≤22%, OM vs placebo): 0.82 (0.71, 0.94)
First HF Event ARR (EF ≤22%, OM vs placebo): 6.6 per 100 patient years
First HF Event HR (95% CI) (EF ≤22%, OM vs placebo): 0.81 (0.70, 0.93)
Primary Outcome ARR (EF ≤22%, OM vs placebo): 7.4 per 100 patient years
Primary Outcome HR (95% CI) (EF ≤22%, OM vs placebo): 0.83 (0.73, 0.95)
Total HF Events, ARR (EF ≤22%, OM vs placebo): 11.3 per 100 pt-yrs
Total HF Events, Ratio (95% CI) (EF ≤22%, OM vs placebo): 0.83 (0.70, 1.01)
Total HF Hospitalizations, ARR (EF ≤22%, OM vs placebo): 9.9 per 100 pt-yrs
Total HF Hospitalizations, Ratio (95% CI) (EF ≤22%, OM vs placebo): 0.84 (0.70, 1.01)
Creatinine, Treatment Difference (EF ≤22%, vs placebo): -0.01 mg/dL
Heart rate, Treatment Difference (EF ≤22%, vs placebo): −1.6 bpm
KCCQ Total Symptom Score, Treatment Difference, least squares mean (EF ≤22%, vs placebo): +1.6
NT-proBNP (Ratio) (EF ≤22%, vs placebo): 0.78
Potassium, Treatment Difference (EF ≤22%, vs placebo): 0.01 mmol/L
Systolic BP, Treatment Difference (EF ≤22%, vs placebo): 0.9 mmHg
Troponin I (Ratio) (EF ≤22%, vs placebo): 1.19
Troponin I, Treatment Difference (95% CI) (EF ≤22%, vs placebo): 5 (4, 6) ng/L
1st HF Hospitalization (%) (EF ≥33%, OM group): 26%
1st HF Hospitalization Rate (EF ≥33%, OM group): 15.5 per 100 patient years
1st HF Hospitalization n/N (EF ≥33%, OM group): 228/892
All-cause Death (%) (EF ≥33%, OM group): 22%
All-cause Death Rate (EF ≥33%, OM group): 11.8 per 100 patient years
All-cause Death n/N (EF ≥33%, OM group): 200/892
First HF Event (%) (EF ≥33%, OM group): 26%
First HF Event Rate (EF ≥33%, OM group): 16.2 per 100 patient years
First HF Event n/N (EF ≥33%, OM group): 236/892
Primary Outcome (%) (EF ≥33%, OM group): 33%
Primary Outcome Rate (EF ≥33%, OM group): 20.5 per 100 patient years
Primary Outcome n/N (EF ≥33%, OM group): 298/892
Total HF Events, Events (EF ≥33%, OM group): 483
Total HF Events, Rate (EF ≥33%, OM group): 28.5 per 100 pt-yrs
Total HF Hospitalizations, Events (EF ≥33%, OM group): 449
Total HF Hospitalizations, Rate (EF ≥33%, OM group): 26.5 per 100 pt-yrs
1st HF Hospitalization ARR (EF ≥33%, OM vs placebo): −1.2 per 100 patient years
1st HF Hospitalization HR (95% CI) (EF ≥33%, OM vs placebo): 1.03 (0.85, 1.24)
All-cause Death ARR (EF ≥33%, OM vs placebo): −0.1 per 100 patient years
All-cause Death HR (95% CI) (EF ≥33%, OM vs placebo): 0.98 (0.80, 1.20)
First HF Event ARR (EF ≥33%, OM vs placebo): −1.3 per 100 patient years
First HF Event HR (95% CI) (EF ≥33%, OM vs placebo): 1.04 (0.86, 1.25)
Primary Outcome ARR (EF ≥33%, OM vs placebo): −0.4 per 100 patient years
Primary Outcome HR (95% CI) (EF ≥33%, OM vs placebo): 0.99 (0.84, 1.16)
Total HF Events, ARR (EF ≥33%, OM vs placebo): −4.7 per 100 pt-yrs
Total HF Events, Ratio (95% CI) (EF ≥33%, OM vs placebo): 1.13 (0.90, 1.43)
Total HF Hospitalizations, ARR (EF ≥33%, OM vs placebo): −3.6 per 100 pt-yrs
Total HF Hospitalizations, Ratio (95% CI) (EF ≥33%, OM vs placebo): 1.12 (0.89, 1.43)
Creatinine, Treatment Difference (EF ≥33%, vs placebo): 0.02 mg/dL
Heart rate, Treatment Difference (EF ≥33%, vs placebo): −1.1 bpm
KCCQ Total Symptom Score, Treatment Difference, least squares mean (EF ≥33%, vs placebo): −1.0
NT-proBNP (Ratio) (EF ≥33%, vs placebo): 0.97
Potassium, Treatment Difference (EF ≥33%, vs placebo): 0.02 mmol/L
Systolic BP, Treatment Difference (EF ≥33%, vs placebo): −1.2 mmHg
Troponin I (Ratio) (EF ≥33%, vs placebo): 1.27
Troponin I, Treatment Difference (95% CI) (EF ≥33%, vs placebo): 3 (2, 4) ng/L
Change from baseline in KCCQ Total Symptom Score, least square mean (Inpatient, EF 23-28%): 21.51
KCCQ Total Symptom Score Inpatient, Treatment Difference, least squares mean (Inpatient, EF 23-28%, vs placebo): +0.2
Change from baseline in KCCQ Total Symptom Score, least square mean (Inpatient, EF 29-32%): 22.34
KCCQ Total Symptom Score Inpatient, Treatment Difference, least squares mean (Inpatient, EF 29-32%, vs placebo): +4.8
Change from baseline in KCCQ Total Symptom Score, least square mean (Inpatient, EF ≤22%): 27.70
KCCQ Total Symptom Score Inpatient, Treatment Difference, least squares mean (Inpatient, EF ≤22%, vs placebo): +4.9
Change from baseline in KCCQ Total Symptom Score, least square mean (Inpatient, EF ≥33%): 22.09
KCCQ Total Symptom Score Inpatient, Treatment Difference, least squares mean (Inpatient, EF ≥33%, vs placebo): −0.0
Change from baseline in KCCQ Total Symptom Score, least square mean (Outpatient, EF 23-28%): 5.61
KCCQ Total Symptom Score Outpatient, Treatment Difference, least squares mean (Outpatient, EF 23-28%, vs placebo): −0.6
Change from baseline in KCCQ Total Symptom Score, least square mean (Outpatient, EF 29-32%): 5.30
KCCQ Total Symptom Score Outpatient, Treatment Difference, least squares mean (Outpatient, EF 29-32%, vs placebo): −0.8
Change from baseline in KCCQ Total Symptom Score, least square mean (Outpatient, EF ≤22%): 7.08
KCCQ Total Symptom Score Outpatient, Treatment Difference, least squares mean (Outpatient, EF ≤22%, vs placebo): +0.7
Change from baseline in KCCQ Total Symptom Score, least square mean (Outpatient, EF ≥33%): 5.18
KCCQ Total Symptom Score Outpatient, Treatment Difference, least squares mean (Outpatient, EF ≥33%, vs placebo): −1.5
Increase in troponin I, median (across the EF quartiles, limit of detection 6 ng/L, upper reference limit 40 ng/L): 3 to 5 ng/L
Incidence of adverse events, omecamtiv mecarbil vs placebo (by EF quartile, result in words): no significant differences
Effect on symptoms as assessed by the KCCQ-TSS as a function of EF (inpatient or outpatient settings, result in words): no consistent beneficial effect
Absolute risk reduction, primary composite endpoint (lowest ejection fraction quartile): 7.4 events per 100 patient-years
Relative risk reduction, primary composite endpoint (lowest ejection fraction quartile (EF ≤22%)): 17%
Number-needed-to-treat to prevent an event (over 3 years, lowest ejection fraction quartile): 11.8
Effect on cardiovascular death (overall population and as a function of baseline ejection fraction, result in words): no overall effect
Primary endpoint, hazard ratio (patients with EF ≤28%, vs placebo): 0.84
Primary endpoint, hazard ratio (patients with EF>28%, vs placebo): 1.04
Reduction in time-to-first heart failure event or cardiovascular death (primary endpoint) (patients with ejection fraction ≤28% (below the median)): 16%
Effect on all-cause mortality (result in words): no effect
Relative risk reduction, primary composite endpoint (second lowest ejection fraction quartile (EF 23-28%)): 15%
Incidence of adjudicated stroke (vs placebo, result in words): apparent reduction
Change of NT-proBNP (week 24, highest EF quartile): 3%
Reduction of NT-proBNP (week 24, lowest EF quartile (≤22%)): 22%
